Experimental data published in US12133923B2, “Lipid nanoparticle compositions and uses thereof” (ReCode Therapeutics, Inc., priority 2022, dated 2024).
Like-named read-outs stand apart in the source and are kept apart here.

Experiments:
[1] = system: CFTR function in human Bronchial Epithelials (hBE); assay: CFTR function (chloride conductance, MTECC24) in hBE after nebulized CFTR mRNA LNPs; assay type: cell-based
Experimental: CFTR mRNA was incorporated into various LNP compositions: DODAP-containing Composition B and various non-DODAP lipid nanoparticles (400 μL for Composition A and Composition H) stored in 1× phosphate buffered saline (PBS). The compositions were nebulized using a VitroCell® system with a mesh nebulizer to deliver aerosolized LNPs to primary human Bronchial Epithelials (hBE). CFTR function was measured. The composition of the nanoparticles used in the study is shown below in Table 13.
Experiments were conducted to evaluate the impact of cholesterol on the stability and efficacy of lipid nanoparticle (LNP) compositions. Composition B lipid nanoparticles containing higher molar percentage of cholesterol were created and subjected to test its CFTR function. Chloride conductance was measured with multi transepithelial current clamp system (MTECC24). […] Further, lipid nanoparticles containing 50% molar percentage of cholesterol were created, measured its CFTR function and resulted that increased molar percentage of cholesterol in lipid nanoparticles enhanced CFTR function (FIG. 41). […]
Cystic Fibrosis treatment drugs (Trifkafta or Orkambi) were treated at the time of nebulization. At 24 h post-treatment, chloride conductance was measured with multi transepithelial current clamp system (MTECC24). […]

hBE cells = assay: Transepithelial electrical resistance (TEER) in hBE; assay type: cell-based, human; settings: W1282X/W1282X and R553X/W1282X hBE; pre-treatment before LNP nebulization
Experimental: As used herein, the phrase “transepithelial electrical resistance (TEER)” is a measurement method of electrical resistance across a cellular monolayer to confirm the integrity and permeability of a monolayer. Measurement of TEER is described, for example, in Srinivasan et al. J. Lab. Automation 20:107-126 (2015).
Cystic Fibrosis treatment drugs (Trifkafta or Orkambi) were treated at the time of nebulization. At 24 h post-treatment, chloride conductance was measured with multi transepithelial current clamp system (MTECC24). In both cell lines, nebulization of lipid nanoparticles containing CFTR mRNA rescued CFTR function.
To determine whether aerosolized lipid nanoparticles affect cell toxicity, six ΔF508/ΔF508 homozygous genotypes hBE cells were dosed lipid nanoparticles and measured electrical resistance across a cellular monolayer and released lactic acid dehydrogenase (LDH).
To determine whether mucus production affects transfection efficiency of lipid nanoparticles, W1282X/W1282X hBEs and R553X/W1282X hBEs cells were pre-treated Dithiothreitol (DTT) before lipid nanoparticles were nebulized (experimental scheme shown in FIG. 49). […] Cell toxicities were measured by transepithelial electrical resistance (TEER).

[2] = Single dose inhalation study: LNP component lipid levels in blood, lung, liver, spleen; assay type: in vivo, cynomolgus monkey; settings: for lipid signal in lung remaining: 72 hr; for lipid signal in lung remaining, % of peak: 7 days; for time of peak lipid level in lung tissue: after inhaled Composition A-DNAI1-HA
Experimental: Group 1 animals were terminated at 24-hours post end of exposure.
Levels of the LNP component lipids 4A3-SC7, 14:0 EPC, and DMG-PEG were measured in blood, lung, liver, and spleen samples following administration of Composition-DNAI1-HA. Blood samples were collected at pre-treatment, 0.5 hr, 1 hr, 6 hr, 24 hr, 48 hr, and 7 days postadministration and processed to separate the plasma and blood cell fractions. Spleen and liver samples were collected at 6 hr, 24 hr, 72 hr, and 7 days post-exposure. Lung tissue was sampled in three locations from the right lung of each animal: Caudal lobe, cranial lobe, and middle lobe at each necropsy time point.

O[C@H](CS)[C@H](O)CS (racemic) [DTT, Dithiothreitol]
chloride flux after nebulization of lipid nanoparticles ([1]; W1282X/W1282X and R553X/W1282X hBE, pre-treatment raised from 3 mM to 10 mM): correlated with higher chloride flux
cell toxicity by TEER (hBE cells): cell integrity was not affected

CCCCCCCCCCCCCC(=O)OCC(COP(=O)(OCC)OCC[N+](C)(C)C)OC(=O)CCCCCCCCCCCCC (stereo not shown) [14:0 EPC, 1,2-dimyristoyl-sn-glycero-3-ethylphosphocholine]
lipid signal in lung remaining ([2]; high dose): 2.5%
lipid signal in lung remaining ([2]; low dose): 13.2%
lipid signal in lung remaining, % of peak ([2]; high dose): 0.8%
lipid signal in lung remaining, % of peak ([2]; low dose): 0.7%
time of peak lipid level in lung tissue [2]: 6 h
lipid level in liver ([2]; all samples except one high dose sample at 6 hr (below assay LOQ)): not detected
concentration at 6 hr ([2]; both sexes, cynomolgus monkey, lung, inhaled, 0.34 mg/kg, 6 hr, high dose (group 3), read-out: lipid level in lung): 13900 to 66700 ng/g
concentration at 1 hr ([2]; both sexes, cynomolgus monkey, plasma, inhaled, 0.34 mg/kg, high dose (group 3), 1 hr, read-out: lipid level in plasma): 1.03 ng/mL
concentration at 6 hr ([2]; both sexes, cynomolgus monkey, plasma, inhaled, 0.34 mg/kg, high dose (group 3), 6 hr, read-out: lipid level in plasma): 1.97 ng/mL
concentration at 6 hr ([2]; both sexes, cynomolgus monkey, spleen, inhaled, 0.34 mg/kg, high dose sample at 6 hr, all others not detected, read-out: lipid level in spleen): 9.56 ng/g
lipid level in plasma ([2]; high dose (group 3), 1 hr): 0.99 ng/mL

CCCCCCCSCC(C)C(=O)OCCOC(=O)CCN(CCCN(C)CCCN(CCC(=O)OCCOC(=O)C(C)CSCCCCCCC)CCC(=O)OCCOC(=O)C(C)CSCCCCCCC)CCC(=O)OCCOC(=O)C(C)CSCCCCCCC (stereo not shown) [Composition 4A3-SC7]
lipid signal in lung remaining ([2]; high dose): 0.6%
lipid signal in lung remaining ([2]; low dose): 13%
lipid level in lung ([2]; 7 days post-administration, all samples except one caudal lobe sample in high dose group): below the limit of quantitation
time of peak lipid level in lung tissue [2]: 6 h
concentration at 6 hr ([2]; both sexes, cynomolgus monkey, lung, inhaled, 0.34 mg/kg, 6 hr post-exposure, high dose group, read-out: lipid level in lung): 9550 to 67800 ng/mL

CC(C)(C)c1cc(C(C)(C)C)c(NC(=O)c2c[nH]c3ccccc3c2=O)cc1O [Ivacaftor]
rescue of CFTR function on addition of CFTR activator ([1]; R553X/W1282X and W1282X/W1282X hBE, after delivery of lipid nanoparticles): further increased rescue of CFTR function
